Test [1] can be described thus: Inhibition of caspase-like activity of 20S proteasome catalytic core from rabbit erythrocytes using Z-LLE-NA as substrate preincubated for 15 mins prior to substrate addition measured after 45 mins. On the set-up: species or system Oryctolagus cuniculus.
For test [2], the species on record is Oryctolagus cuniculus. Description: Inhibition of chymotrypsin-like activity of 20S proteasome catalytic core from rabbit erythrocytes using Suc-LLVY-AMC as substrate at 100 uM preincubated for 15 mins prior to substrate addition measured after 45 mins.
The species entered for test [3] is Oryctolagus cuniculus. Description: Inhibition of trypsin-like activity of 20S proteasome catalytic core from rabbit erythrocytes using Boc-LRR-AMC as substrate at 100 uM preincubated for 15 mins prior to substrate addition measured after 45 mins.
The target in test [4] is Cathepsin B (Homo sapiens) (UniProt P07858). Description: Inhibition of cathepsin B from human hepatocytes using […] as substrate. The conditions noted are these: Hepatocyte.
The species entered for test [5] is Homo sapiens. In words: Inhibition of calpain-1 from human erythrocytes using […] as substrate.
Test [6] is described as follows: Inhibition of chymotrypsin-like activity of 20S proteasome catalytic core from rabbit erythrocytes using Suc-LLVY-AMC as substrate preincubated for 15 mins prior to substrate addition measured after 45 mins. Details: species or system Oryctolagus cuniculus.
Test [7] can be described thus: Inhibition of trypsin-like activity of 20S proteasome catalytic core from rabbit erythrocytes using Boc-LRR-AMC as substrate preincubated for 15 mins prior to substrate addition measured after 45 mins. On the set-up: species or system Oryctolagus cuniculus.
Test [8] can be described thus: (§1) Inhibition of chymotrypsin-like activity of 20S proteasome catalytic core from human erythrocytes using Suc-LLVY-AMC as substrate preincubated for 15 mins prior to substrate addition measured after 45 mins.
Test [9] is described as follows: Inhibition of caspase-like activity of 20S proteasome catalytic core from human erythrocytes using Z-LLE-NA as substrate preincubated for 15 mins prior to substrate addition measured after 45 mins.
A short description of test [10]: (§2) Inhibition of trypsin-like activity of 20S proteasome catalytic core from human erythrocytes using Boc-LRR-AMC as substrate preincubated for 15 mins prior to substrate addition measured after 45 mins.
For test [11], the species on record is Oryctolagus cuniculus. In words: Inhibition of rabbit 20S proteasome chymotrypsin-like activity using […] as substrate at 10 to 50 uM. The note with it: TDE = time-dependent effect.
The species entered for test [12] is Oryctolagus cuniculus. Description: Irreversible inhibition of rabbit 20S proteasome chymotrypsin-like activity using […] as substrate at 10 to 50 uM from 5 to 60 mins.
For test [13], the species on record is Homo sapiens. Described as §1.
The species entered for test [14] is Homo sapiens. The test is described as §2.
Test [15] is filed under the species Oryctolagus cuniculus. In words: Inhibition of caspase-like activity of 20S proteasome catalytic core from rabbit erythrocytes using Z-LLE-NA as substrate at 100 uM preincubated for 15 mins prior to substrate addition measured after 45 mins.
The species entered for test [16] is Homo sapiens. In words: Inhibition of trypsin-like activity of 20S proteasome catalytic core from human erythrocytes using Boc-LRR-AMC as substrate at 100 uM preincubated for 15 mins prior to substrate addition measured after 45 mins.

Results on 29 compounds are retold here after ChEMBL document CHEMBL2034904, “A new series of N5 derivatives of the 1,1,5-trimethyl furo[3,4-c]pyridine-3,4-dione (cerpegin) selectively inhibits the post-acid activity of mammalian 20S proteasomes” (Bioorg Med Chem Lett, 2012).

The source made the active and inactive calls. No cut-off for these calls is given here.

What is called IC50 is the concentration needed to halve the response being measured. One may read the inhibition as the relative decrease from the control value, in per cent. `CC1(C)OC(=O)c2c1ccn(CC(O)COc1ccccc1)c2=O` (stereo unspecified): in [1], the IC50 stood at 39.7 µM. Moreover, the inhibition result (in the test filed under Oryctolagus cuniculus [2]; in test [4]; in the test listed under Homo sapiens [5]) was “inactive” each time. For the same compound, the inhibition in the test filed under Oryctolagus cuniculus [3] worked out at 33.3%.

In turn, `C=CCOCC(O)Cn1ccc2c(c1=O)C(=O)OC2(C)C` (stereo unspecified) showed an IC50 in test [1] of 5.9 µM. Further, the inhibition result (in the test listed under Oryctolagus cuniculus [2]; in the test listed under Oryctolagus cuniculus [3]; in [4]; in the test filed under Homo sapiens [5]) was “inactive” each time.

`CC1(C)OC(=O)c2c1ccn(NC(N)=S)c2=O`: the IC50 was 8 µM in test [6]; 10.7 µM in test [1]; 10.1 µM in test [7]; 8.4 µM in test [8]; 9.7 µM in [9]; 10.2 µM in test [10]. For the same compound, the inhibition entry in the test filed under Oryctolagus cuniculus [11] is “tde”. Further, the inhibition entry in the test filed under Oryctolagus cuniculus [12] is “Active”. The inhibition entry (in test [4]; in the test listed under Homo sapiens [5]) was “inactive” in each case.

As to `CC1(C)OC(=O)c2c1ccn(Cc1ccncc1)c2=O`, the IC50 in test [1] came to 7 µM; in test [9] it was 7.9 µM. The inhibition entry (in the test filed under Oryctolagus cuniculus [2]; in the test listed under Oryctolagus cuniculus [3]; in the test listed under Homo sapiens [13]; in the test filed under Homo sapiens [14]; in test [4]; in the test filed under Homo sapiens [5]) was “inactive” throughout.

Turning to `CCOC(=O)Cn1ccc2c(c1=O)C(=O)OC2(C)C`, the IC50 in [1] was determined as 13.3 µM. In addition, the inhibition result (in the test filed under Oryctolagus cuniculus [2]; in the test filed under Oryctolagus cuniculus [3]; in [4]; in the test filed under Homo sapiens [5]) was “inactive” throughout.

Take `CC1(C)OC(=O)c2c1ccn(CCc1c[nH]c3ccccc13)c2=O`: the inhibition entry (in the test filed under Oryctolagus cuniculus [2]; in the test filed under Oryctolagus cuniculus [3]; in test [4]; in the test filed under Homo sapiens [5]) was “inactive” each time. Further, the inhibition in the test filed under Oryctolagus cuniculus [15] turned out to be 23.7%.

Compound `CC1(C)OC(=O)c2c1ccn(Cc1cccc(C(F)(F)F)c1)c2=O` yielded an IC50 in [1] of 8.4 µM. Moreover, the inhibition result (in the test filed under Oryctolagus cuniculus [2]; in the test listed under Oryctolagus cuniculus [3]; in test [4]; in the test listed under Homo sapiens [5]) was “inactive” each time.

On to `CC1(C)OC(=O)c2c1ccn(CCc1ccc(O)cc1)c2=O`, for which the inhibition came to 38.2% in the test filed under Oryctolagus cuniculus [2] and 21.7% in the test listed under Oryctolagus cuniculus [15]. For the same compound, the inhibition result (in the test listed under Oryctolagus cuniculus [3]; in [4]; in the test listed under Homo sapiens [5]) was “inactive” in each case.

On to `CC1(C)OC(=O)c2c1ccn(CCCN1CCOCC1)c2=O`, for which the IC50 in test [1] turned out to be 71.9 µM. Moreover, the inhibition entry (in the test filed under Oryctolagus cuniculus [2]; in the test filed under Oryctolagus cuniculus [3]; in [4]; in the test listed under Homo sapiens [5]) was “inactive” each time.

Take `CC1(C)OC(=O)c2c1ccn(CC(O)CN1CCOCC1)c2=O` (stereo unspecified): the inhibition entry (in the test listed under Oryctolagus cuniculus [2]; in the test filed under Oryctolagus cuniculus [15]; in test [4]; in the test listed under Homo sapiens [5]) was “inactive” in each case. In the test listed under Oryctolagus cuniculus [3], the inhibition was determined as 42.5%.

`CC1(C)OC(=O)c2c1ccn(CCc1ccc(F)cc1)c2=O`: 39.8 µM corresponded to half-maximal inhibition in [1] (IC50). Further, the inhibition result (in the test filed under Oryctolagus cuniculus [2]; in the test filed under Oryctolagus cuniculus [3]; in [4]; in the test filed under Homo sapiens [5]) was “inactive” in each case.

As for `CC1(C)OC(=O)c2c1ccn(CCNc1ccc([N+](=O)[O-])cn1)c2=O`, the inhibition result (in the test filed under Oryctolagus cuniculus [2]; in the test listed under Oryctolagus cuniculus [3]; in test [4]; in the test listed under Homo sapiens [5]) was “inactive” in each case. The inhibition in the test listed under Oryctolagus cuniculus [15] was 23.4%.

`CC1(C)OC(=O)c2c1ccn(CC(O)CO)c2=O` (stereo unspecified): the IC50 in test [1] stood at 4.9 µM. For the same compound, the inhibition entry (in the test listed under Oryctolagus cuniculus [2]; in the test filed under Oryctolagus cuniculus [3]; in test [4]; in the test filed under Homo sapiens [5]) was “inactive” in each case.

Compound `CC1(C)OC(=O)c2c1ccn(CCc1ccccc1Cl)c2=O` showed an IC50 in test [1] of 4.9 µM. Besides, the inhibition entry (in the test filed under Oryctolagus cuniculus [2]; in test [4]; in the test filed under Homo sapiens [5]) was “inactive” each time. The compound also registered an inhibition in the test listed under Oryctolagus cuniculus [3] of 40%.

With `CC1(C)OC(=O)c2c1ccn(CC(O)c1ccccc1)c2=O` (stereo unspecified), the IC50 in test [1] is 5.2 µM. The inhibition result (in the test listed under Oryctolagus cuniculus [2]; in test [4]; in the test listed under Homo sapiens [5]) was “inactive” each time. Further, the inhibition in the test listed under Oryctolagus cuniculus [3] is 51.5%.

As for `CC1(C)OC(=O)c2c1ccn(CCc1ccc(Cl)cc1)c2=O`, the IC50 in [1] was determined as 20.1 µM. The inhibition entry (in the test listed under Oryctolagus cuniculus [2]; in test [4]; in the test listed under Homo sapiens [5]) was “inactive” in each case. In the test filed under Oryctolagus cuniculus [3], this compound gave an inhibition of 50%.

For `CC1(C)OC(=O)c2c1ccn(CC(O)CN1CCN(Cc3ccccc3)CC1)c2=O` (stereo unspecified), the IC50 in test [1] was determined as 69.8 µM. For the same compound, the inhibition result (in the test filed under Oryctolagus cuniculus [2]; in the test listed under Oryctolagus cuniculus [3]; in test [4]; in the test listed under Homo sapiens [5]) was “inactive” each time.

Regarding `CC1(C)OC(=O)c2c1ccn(CCc1ccccc1)c2=O`, the IC50 in test [1] turned out to be 48.7 µM; in test [9], 45.7 µM. Also, the inhibition entry (in the test listed under Oryctolagus cuniculus [2]; in the test filed under Homo sapiens [13]; in test [4]; in the test listed under Homo sapiens [5]) was “inactive” each time. Further, the values for the inhibition in the test listed under Oryctolagus cuniculus [3] and in the test filed under Homo sapiens [16] were 22.6% and 25.3%, respectively.

Consider `CC1(C)OC(=O)c2c1ccn(CCCN1CCCC1)c2=O`, for which half-maximal inhibition in [1] (IC50) required 11.4 µM. For the same compound, the inhibition result (in the test listed under Oryctolagus cuniculus [2]; in the test listed under Oryctolagus cuniculus [3]; in [4]; in the test listed under Homo sapiens [5]) was “inactive” in each case.

`CC1(C)OC(=O)c2c1ccn(Cc1ccc(Cl)cc1Cl)c2=O` registered an IC50 in test [1] of 29.3 µM. Moreover, the inhibition entry (in the test listed under Oryctolagus cuniculus [2]; in the test filed under Oryctolagus cuniculus [3]; in test [4]; in the test listed under Homo sapiens [5]) was “inactive” in each case.

On to `CC1(C)OC(=O)c2c1ccn(Cc1ccc(Cl)cc1)c2=O`, for which, in [1], the IC50 stood at 7.1 µM. The inhibition in the test filed under Oryctolagus cuniculus [2] turned out to be 21%; in the test listed under Oryctolagus cuniculus [3], 20%. In addition, the inhibition entry (in [4]; in the test listed under Homo sapiens [5]) was “inactive” in each case.

Take `COc1ccc(CCn2ccc3c(c2=O)C(=O)OC3(C)C)cc1`: the inhibition result (in the test listed under Oryctolagus cuniculus [2]; in the test listed under Oryctolagus cuniculus [15]; in the test listed under Oryctolagus cuniculus [3]; in test [4]; in the test listed under Homo sapiens [5]) was “inactive” throughout.

In test [1], `Cn1ccc2c(c1=O)C(=O)OC2(C)C` [CERPEGIN] gave an IC50 of 10.4 µM. The inhibition entry (in the test filed under Oryctolagus cuniculus [2]; in the test filed under Oryctolagus cuniculus [3]; in test [4]; in the test filed under Homo sapiens [5]) was “inactive” throughout.

As to `CC1(C)OC(=O)c2c1ccn(CC(O)CN1CCCCC1)c2=O` (stereo unspecified), the IC50 in [1] came to 6.1 µM. The inhibition result (in the test listed under Oryctolagus cuniculus [2]; in the test listed under Oryctolagus cuniculus [3]; in test [4]; in the test listed under Homo sapiens [5]) was “inactive” in each case.

In the case of `CC1(C)OC(=O)c2c1ccn(CCCn1ccnc1)c2=O`, in test [1], the midpoint of inhibition, the IC50, lay at 76.8 µM. Besides, the inhibition result (in the test filed under Oryctolagus cuniculus [2]; in the test filed under Oryctolagus cuniculus [3]; in [4]; in the test filed under Homo sapiens [5]) was “inactive” in each case.

For the compound `CN(C)CCn1ccc2c(c1=O)C(=O)OC2(C)C`, the inhibition entry (in the test filed under Oryctolagus cuniculus [2]; in the test listed under Oryctolagus cuniculus [3]; in test [4]; in the test filed under Homo sapiens [5]) was “inactive” each time. In the test filed under Oryctolagus cuniculus [15], this compound came in with an inhibition of 50%.

As to `CCN(CC)CC(O)Cn1ccc2c(c1=O)C(=O)OC2(C)C` (stereo unspecified), the IC50 in test [1] is 6.1 µM; in [7], 90 µM. The inhibition entry (in the test filed under Oryctolagus cuniculus [2]; in test [4]; in the test filed under Homo sapiens [5]) was “inactive” in each case.

In test [1], `CC1(C)OC(=O)c2c1ccn(CCO)c2=O` yielded an IC50 of 12.1 µM. Further, the inhibition result (in the test listed under Oryctolagus cuniculus [2]; in the test filed under Oryctolagus cuniculus [3]; in [4]; in the test filed under Homo sapiens [5]) was “inactive” in each case.

`CC1(C)OC(=O)c2c1ccn(CCc1ccc(S(N)(=O)=O)cc1)c2=O` gave an IC50 in test [1] of 5.5 µM. For the same compound, the inhibition result (in the test listed under Oryctolagus cuniculus [2]; in the test listed under Oryctolagus cuniculus [3]; in test [4]; in the test filed under Homo sapiens [5]) was “inactive” each time.
